Measurements published in patent publication US20080004253A1, “Thiazolopyrimidine modulators of TRPV1” (priority 2006, published 2008).
pIC50: −log10 of the molar value.

How the values were obtained:
human TRPV1 = target: T1, human TRPV1 (Homo sapiens, UniProt Q8NER1); test: Functional assay: block of capsaicin-induced Ca2+ influx, human assay (hTRPV1/HEK293, FLIPR); format: cell-based; settings: hTRPV1/HEK293 cells, 150 nM capsaicin challenge, Fluo-3 fluorescence; mean; > value = solubility limit in assay medium
T1 construct: expressed in transfected cells; host or cells: HEK293 (hTRPV1/HEK293), zeocin selection
How it was run: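 HEK293 cells stably expressing human TRPV1, fluo3-loaded, preincubated 30 min with compound (serial 3-fold dilutions from 10 μM, duplicate) in 20 μM Ca2+ buffer. Capsaicin response taken as fluo3 fluorescence change before vs 100 s after agonist; IC50 by non-linear regression, mean values; free base or TFA salt.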

rat TRPV1 = target: T2, rat TRPV1 (Rattus norvegicus, UniProt O35433); test: Functional assay: block of capsaicin-induced Ca2+ influx, rat assay (rTRPV1/HEK293, FLIPR); format: cell-based; settings: rTRPV1/HEK293 cells, capsaicin challenge, Fluo-3 fluorescence; mean; > value = solubility limit in assay medium
T2 construct: expressed in transfected cells; host or cells: HEK293 (rTRPV1/HEK293), geneticin selection
How it was run: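 Compounds, as free base or TFA salt, tested from 10 μM in three-fold steps on rTRPV1-transfected HEK293 cells, with 30 min preincubation in low-calcium (20 μM) buffer. Capsaicin-evoked Ca2+ influx measured by FLIPR fluo3 signal before and 100 s after addition. Averaged IC50 from non-linear fits.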

T1 sequence (Q8NER1 whole entry): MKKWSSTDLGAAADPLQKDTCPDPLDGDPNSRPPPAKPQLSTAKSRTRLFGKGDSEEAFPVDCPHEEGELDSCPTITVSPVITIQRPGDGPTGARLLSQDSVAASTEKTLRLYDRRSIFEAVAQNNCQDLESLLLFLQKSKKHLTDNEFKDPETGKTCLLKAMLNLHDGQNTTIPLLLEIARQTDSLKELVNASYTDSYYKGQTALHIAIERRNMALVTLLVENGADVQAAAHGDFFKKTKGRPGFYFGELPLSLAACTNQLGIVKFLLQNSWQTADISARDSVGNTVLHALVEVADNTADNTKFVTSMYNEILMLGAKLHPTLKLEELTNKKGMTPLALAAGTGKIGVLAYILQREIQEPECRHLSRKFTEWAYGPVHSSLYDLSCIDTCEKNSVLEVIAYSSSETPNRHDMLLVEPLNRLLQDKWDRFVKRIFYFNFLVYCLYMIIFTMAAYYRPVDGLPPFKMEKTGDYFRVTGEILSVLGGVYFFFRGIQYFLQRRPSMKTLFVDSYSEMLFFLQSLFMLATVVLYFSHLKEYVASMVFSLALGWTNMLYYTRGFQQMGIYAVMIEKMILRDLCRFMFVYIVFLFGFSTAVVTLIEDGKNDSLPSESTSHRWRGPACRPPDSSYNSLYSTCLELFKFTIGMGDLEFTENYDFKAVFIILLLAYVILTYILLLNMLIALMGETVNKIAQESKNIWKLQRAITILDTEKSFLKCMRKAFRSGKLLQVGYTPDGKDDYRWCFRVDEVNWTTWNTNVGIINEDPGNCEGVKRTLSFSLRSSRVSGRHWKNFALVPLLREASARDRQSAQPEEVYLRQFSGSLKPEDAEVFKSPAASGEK
T2 sequence (O35433 whole entry): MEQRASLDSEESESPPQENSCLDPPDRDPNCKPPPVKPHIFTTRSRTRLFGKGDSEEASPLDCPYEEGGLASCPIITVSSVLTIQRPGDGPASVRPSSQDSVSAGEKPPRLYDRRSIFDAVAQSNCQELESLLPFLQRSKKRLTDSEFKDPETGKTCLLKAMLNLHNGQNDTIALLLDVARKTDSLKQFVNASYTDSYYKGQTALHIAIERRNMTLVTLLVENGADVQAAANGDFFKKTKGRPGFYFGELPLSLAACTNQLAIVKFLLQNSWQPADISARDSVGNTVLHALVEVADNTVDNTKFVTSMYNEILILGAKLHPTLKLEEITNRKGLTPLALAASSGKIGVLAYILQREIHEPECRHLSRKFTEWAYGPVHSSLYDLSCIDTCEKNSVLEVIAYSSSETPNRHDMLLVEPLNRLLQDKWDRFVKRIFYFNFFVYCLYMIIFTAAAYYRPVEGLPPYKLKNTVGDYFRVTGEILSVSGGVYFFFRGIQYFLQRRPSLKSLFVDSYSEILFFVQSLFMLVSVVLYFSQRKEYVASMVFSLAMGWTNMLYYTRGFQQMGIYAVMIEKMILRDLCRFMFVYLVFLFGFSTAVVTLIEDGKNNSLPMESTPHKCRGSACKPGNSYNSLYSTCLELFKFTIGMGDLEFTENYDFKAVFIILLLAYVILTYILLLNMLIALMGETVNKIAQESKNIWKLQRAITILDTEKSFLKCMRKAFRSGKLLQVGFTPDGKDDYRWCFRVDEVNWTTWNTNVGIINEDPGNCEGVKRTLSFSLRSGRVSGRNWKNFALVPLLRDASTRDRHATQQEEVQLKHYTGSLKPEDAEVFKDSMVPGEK

SMILES	pIC50 (human TRPV1)	pIC50 (rat TRPV1)
Cc1nc(Nc2ccc(C(F)(F)F)cc2)c2nc(Nc3cccc4nsnc34)sc2n1 [Example 205, N^2-Benzo[1,2,5]thiadiazol-4-yl-5-methyl-N^7-(4-trifluoromethyl-phenyl)-thiazolo[5,4-d]pyrimidine-2,7-diamine]	4.78	4.90
Cc1nc(Nc2ccc(C(F)(F)F)cc2)c2nc(Nc3ccccc3[N+](=O)[O-])sc2n1 [Example 206, 5-Methyl-N^2-(2-nitro-phenyl)-N^7-(4-trifluoromethyl-phenyl)-thiazolo[5,4-d]pyrimidine-2,7-diamine]	5.61	5.77
COC(=O)c1scc(C)c1Nc1nc2c(Nc3ccc(C(F)(F)F)c(Cl)c3)ncnc2s1 [Example 207, 3-[7-(3-Chloro-4-trifluoromethyl-phenylamino)-thiazolo[5,4-d]pyrimidin-2-ylamino]-4-methyl-thiophene-2-carboxylic acid methyl ester]	6.12	6.46
Cc1nc(Nc2ccc(C(F)(F)F)cc2)c2nc(Nc3c(C)noc3C)sc2n1 [Example 208, N^2-(3,5-Dimethyl-isoxazol-4-yl)-5-methyl-N^7-(4-trifluoromethyl-phenyl)thiazolo[5,4-d]pyrimidine-2,7-diamine]	6.40	6.40
Cc1nc(Nc2ccc(C(C)(C)C)cc2)c2nc(Nc3c(C)noc3C)sc2n1 [Example 209, N^7-(4-tert-Butyl-phenyl)-N^2-(3,5-dimethyl-isoxazol-4-yl)-5-methyl-thiazolo[5,4-d]pyrimidine-2,7-diamine]	6.57	6.79
Cc1nc(Nc2ccc(C(F)(F)F)cc2)c2nc(Nc3ncccc3C)sc2n1 [Example 211, 5-Methyl-N^2-(3-methyl-pyridin-2-yl)-N^7-(4-trifluoromethyl-phenyl)-thiazolo[5,4-d]pyrimidine-2,7-diamine]	≤ 5.18	≤ 5.18
Cc1nc(Nc2ccc(S(=O)(=O)N(C)C)cc2)c2nc(Nc3ncccc3C)sc2n1 [Example 212, N,N-Dimethyl-4-[5-methyl-2-(3-methyl-pyridin-2-ylamino)-thiazolo[5,4-d]pyrimidin-7-ylamino]-benzenesulfonamide]	≤ 5.18	≤ 5.18
Cc1cccnc1Nc1nc2c(Nc3ccc(C(F)(F)F)cc3)ncnc2s1 [Example 213, N^2-(3-Methyl-pyridin-2-yl)-N^7-(4-trifluoromethyl-phenyl)-thiazolo[5,4-d]pyrimidine-2,7-diamine]	≤ 5.18	≤ 5.18
O=S(=O)(c1ccc(Nc2ncnc3sc(Nc4c(Cl)cncc4Cl)nc23)cc1)N1CCCC1 [Example 214, N^2-(3,5-Dichloro-pyridin-4-yl)-N^7-[4-(pyrrolidine-1-sulfonyl)-phenyl]thiazolo[5,4-d]pyrimidine-2,7-diamine]	6.04	6.62
Fc1cc(Nc2ncnc3sc(Nc4c(Cl)cccc4Cl)nc23)ccc1C(F)(F)F [Example 215, N^2-(2,6-Dichloro-phenyl)-N^7-(3-fluoro-4-trifluoromethyl-phenyl)-thiazolo[5,4-d]pyrimidine-2,7-diamine]	7.82	8.10
O=S(=O)(c1ccc(Nc2ncnc3sc(Nc4ccccc4Cl)nc23)cc1)N1CCOCC1 [Example 216, N^2-(2-Chlorophenyl)-N^7-[4-(morpholin-4-ylsulfonyl)phenyl][1,3]thiazolo[5,4-d]pyrimidine-2,7-diamine]	7.62	7.82
Cc1ccccc1Nc1nc2c(Nc3ccc(S(=O)(=O)N4CCOCC4)cc3)ncnc2s1 [Example 217, N^2-(2-Methylphenyl)-N^7-[4-(morpholin-4-ylsulfonyl)phenyl][1,3]thiazolo[5,4-d]pyrimidine-2,7-diamine]	8.10	8.40
Cc1ccccc1Nc1nc2c(Nc3ccc(C(F)(F)F)nc3)ncnc2s1 [Example 218, N^2-(2-Methylphenyl)-N^7-[6-(trifluoromethyl)pyridin-3-yl][1,3]thiazolo[5,4-d]pyrimidine-2,7-diamine]	7.26	7.62
FC(F)(F)c1ccc(Nc2ncnc3sc(Nc4ccccc4C(F)(F)F)nc23)cn1 [Example 219, N^2-[2-(Trifluoromethyl)phenyl]-N^7-[6-(trifluoromethyl)pyridin-3-yl][1,3]thiazolo[5,4-d]pyrimidine-2,7-diamine]	6.98	7.12
FC(F)(F)c1ccc(Nc2ncnc3sc(Nc4ccccc4Cl)nc23)cn1 [Example 220, N^2-(2-Chlorophenyl)-N^7-[6-(trifluoromethyl)pyridin-3-yl][1,3]thiazolo[5,4-d]pyrimidine-2,7-diamine]	7.37	7.42
Cc1noc(C)c1Nc1nc2c(Nc3ccc(S(=O)(=O)N4CCOCC4)cc3)ncnc2s1 [Example 221, N^2-(3,5-Dimethylisoxazol-4-yl)-N^7-[4-(morpholin-4-ylsulfonyl)phenyl][1,3]thiazolo[5,4-d]pyrimidine-2,7-diamine]	5.97	6.57
COC(=O)C(C)(C)c1ccc(Nc2ncnc3sc(Nc4c(C)noc4C)nc23)cc1 [Example 222, Methyl 2-[4-({2-[(3,5-dimethylisoxazol-4-yl)amino][1,3]thiazolo[5,4-d]pyrimidin-7-yl}amino)phenyl]-2-methylpropanoate]	7.00	7.14
Cc1noc(C)c1Nc1nc2c(Nc3ccc(C(C)(C)C#N)cc3)ncnc2s1 [Example 223, 2-[4-({2-[(3,5-Dimethylisoxazol-4-yl)amino][1,3]thiazolo[5,4-d]pyrimidin-7-yl}amino)phenyl]-2-methylpropanenitrile]	6.77	7.02
Cc1noc(C)c1Nc1nc2c(Nc3ccc(S(C)(=O)=O)cc3)ncnc2s1 [Example 224, N^2-(3,5-Dimethylisoxazol-4-yl)-N^7-[4-(methylsulfonyl)phenyl][1,3]thiazolo[5,4-d]pyrimidine-2,7-diamine]	5.26	5.80
FC(F)(F)c1ccc(Nc2ncnc3sc(Nc4ccccc4C(F)(F)F)nc23)cc1 [Example 225, N^2-[2-(Trifluoromethyl)phenyl]-N^7-[4-(trifluoromethyl)phenyl][1,3]thiazolo[5,4-d]pyrimidine-2,7-diamine]	7.04	7.49
CS(=O)(=O)c1ccc(Nc2ncnc3sc(Nc4ccccc4C(F)(F)F)nc23)cc1 [Example 226, N^7-[4-(Methylsulfonyl)phenyl]-N^2-[2-(trifluoromethyl)phenyl][1,3]thiazolo[5,4-d]pyrimidine-2,7-diamine]	6.25	6.87
Oc1ccc(Nc2ncnc3sc(Nc4c(Cl)cccc4Cl)nc23)cc1O [Example 227, 4-({2-[(2,6-Dichlorophenyl)amino][1,3]thiazolo[5,4-d]pyrimidin-7-yl}amino)benzene-1,2-diol]	< 5.18	< 5.18
CC(C)(C#N)c1ccc(Nc2ncnc3sc(Nc4c(Cl)cccc4Cl)nc23)cc1 [Example 228, 2-[4-({2-[(2,6-Dichlorophenyl)amino][1,3]thiazolo[5,4-d]pyrimidin-7-yl}amino)phenyl]-2-methylpropanenitrile]	7.00	7.01
COC(=O)C(C)(C)c1ccc(Nc2ncnc3sc(Nc4c(Cl)cccc4Cl)nc23)cc1 [Example 229, Methyl 2-[4-({2-[(2,6-dichlorophenyl)amino][1,3]thiazolo[5,4-d]pyrimidin-7-yl}amino)phenyl]-2-methylpropanoate]	6.86	7.15
